PMC12320831, “Synthesis and Biological Evaluation of New Chalcogen Semicarbazone (S, Se) and Their Azole Derivatives against Chagas Disease” (Journal of Medicinal Chemistry, 2024)
Structures can show the parent of a compound that is named as a salt. Where two headings read alike, the source gives them in different places.

Tests used:
[1] = target: T1, recombinant Cz (cruzain) (Trypanosoma cruzi, UniProt P25779); test: biochemical; conditions: read-out: Cz inhibition (%), 10 µM
T1 construct: Cz was expressed and purified as described in da Silva et al; made in house
T1 sequence (P25779 123-337 limits assumed): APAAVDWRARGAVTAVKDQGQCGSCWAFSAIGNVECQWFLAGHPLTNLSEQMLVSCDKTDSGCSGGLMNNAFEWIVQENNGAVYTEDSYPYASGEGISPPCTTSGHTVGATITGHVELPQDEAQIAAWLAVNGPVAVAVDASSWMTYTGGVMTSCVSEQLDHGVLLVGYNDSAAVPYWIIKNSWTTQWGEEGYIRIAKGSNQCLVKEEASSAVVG
Experimental: The screening assay was performed using 1 nM of Cz diluted in 0.1 M sodium acetate pH 5.5, 1 mM dithiothreitol (DTT), and 0.01% Triton X-100. Cz was expressed and purified as described in da Silva et al. The reaction starts after 10 min incubating the enzyme with the compounds (10 μM), when adding 2.5 μM of the substrate Z-FR-AMC final concentration (Z-Phe-Arg-amidomethylcoumarin, Sigma-Aldrich, C9521) diluted in the same assay buffer (final volume of 30 μL). The experiment was performed for 10 min. […] The DRC was performed with at least nine different concentrations of the inhibitors, diluted by 2-fold serial dilution, ranging from […] to 10 μM.
All experiments were accomplished in a 384-well black microplate, using a Synergy HTX (Biotek) plate reader at 25 °C with absorption/emission wavelengths of 360/460 nm. All assays were performed in triplicate wells and DMSO was used as a vehicle control. Enzymatic activity was measured and normalized to DMSO controls, and the inhibitor E-64 (10 μM) was used as a positive control for all assays. All experiments were performed in triplicates, with at least two independent assays (n = 6 data points). IC50 values were determined through nonlinear regression. Obtained data were treated and analyzed using GraphPad Prism 9.0 (GraphPad Software, La Jolla, California).

[2] = test system: T. cruzi CAI/72 strain; test: Antiparasitic activity in C2C12 cells infected with T. cruzi CAI/72 (image-based assay); type: cell-based; conditions: Trypanosoma cruzi; for EC50: mean of three experiments in triplicate (n = 9) ± SD
Experimental: Antiparasitic activity and cytotoxicity of compounds were determined as described before (da Silva et al., Boudreau et al.). Mouse myoblasts cell line C2C12 (ATCCCRL-1772), were maintained in high glucose (4.5 g/L glucose) Dulbecco’s modified Eagle’s medium (DMEM Gibco), supplemented with 1% penicillin–streptomycin 10,000 U/mL (Gibco) and 5% fetal bovine serum (FBS, Sigma-Aldrich) at 37 °C with 5% CO2. parasites (CAI/72 strain, DTU TcI) were maintained by weekly coinfection with C2C12 cells. For all activity assays, C2C12 cells were infected at a 10:1 parasite-to-cell ratio with culture-derived trypomastigotes, which were harvested from the supernatant of infected C2C12 cells. After adding compounds to 384-well black clear-bottom plates (Greiner cat. no. 781091), trypomastigotes (7000 parasites/well) and C2C12 cells (700 cells/well) were seeded in a total volume of 50 μL of DMEM per well in the 384-well plates. Compounds were first tested at 10 μM. […] Plates were imaged with the automated ImageXpress MicroXL microscope (Molecular Devices) and analyzed by MetaXpress software (Molecular Devices) using a custom module optimized for this assay. Infection levels (parasites per host cell) were normalized to the positive control (40 μM BNZ) and negative control (DMSO). Antiparasitic activity (EC50) ± standard deviation (SD) and host cell cytotoxicity (C2C12 viability) values were determined from the DRC using Prism software (GraphPad Software, La Jolla, CA). Every assay has three biological replicates, each in triplicates (n = 9 data points).

[3] = Host cell cytotoxicity (C2C12 viability); type: cell-based, Mouse; conditions: mouse; for viability at 48 h, 10 µM: < 50% viability considered cytotoxic; for CC50 at 48 h: viability calculated at 10 μM
Experimental: Antiparasitic activity and cytotoxicity of compounds were determined as described before (da Silva et al., Boudreau et al.). Mouse myoblasts cell line C2C12 (ATCCCRL-1772), were maintained in high glucose (4.5 g/L glucose) Dulbecco’s modified Eagle’s medium (DMEM Gibco), supplemented with 1% penicillin–streptomycin 10,000 U/mL (Gibco) and 5% fetal bovine serum (FBS, Sigma-Aldrich) at 37 °C with 5% CO2. parasites (CAI/72 strain, DTU TcI) were maintained by weekly coinfection with C2C12 cells. For all activity assays, C2C12 cells were infected at a 10:1 parasite-to-cell ratio with culture-derived trypomastigotes, which were harvested from the supernatant of infected C2C12 cells. After adding compounds to 384-well black clear-bottom plates (Greiner cat. no. 781091), trypomastigotes (7000 parasites/well) and C2C12 cells (700 cells/well) were seeded in a total volume of 50 μL of DMEM per well in the 384-well plates. Compounds were first tested at 10 μM. […] After 48 h at 37 °C and 5% CO2, plates were fixed with 4% formaldehyde solution for at least 1 h, washed with 1× PBS, and stained with 5 μg/mL of 4′,6-diamidino-2-phenylindole (DAPI) for at least 1 h prior to reading. Plates were imaged with the automated ImageXpress MicroXL microscope (Molecular Devices) and analyzed by MetaXpress software (Molecular Devices) using a custom module optimized for this assay. Infection levels (parasites per host cell) were normalized to the positive control (40 μM BNZ) and negative control (DMSO). Antiparasitic activity (EC50) ± standard deviation (SD) and host cell cytotoxicity (C2C12 viability) values were determined from the DRC using Prism software (GraphPad Software, La Jolla, CA). Every assay has three biological replicates, each in triplicates (n = 9 data points).

[4] = 10 µM, C2C12 infected cells, read-out: Anti-Tc CAI/72 activity (%)
[5] = C2C12 myoblast cells infected with trypomastigotes
[6] = C2C12, read-out: Anti-Tc CAI/72 activity (%)

| SMILES | inhibition at 10 µM [1] [%] | inhibition at 10 µM [2, 4] [%] | viability at 48 h, 10 µM [3, 5] [%] | inhibition at 10 µM [2, 6] [%] | viability at 48 h, 10 µM [3] [%] | EC50 ([2]; C2C12, 48 h, read-out: EC50 Tc CAI/72, intracellular amastigotes in C2C12 cells, 48 h) [µM] | CC50 at 48 h [3] [µM] | EC50 ([2]; intracellular amastigotes in C2C12 cells, 48 h, read-out: EC50 Tc CAI/72) [µM] | CC50 at 48 h [3, 5] [µM] |
| --- | --- | --- | --- | --- | --- | --- | --- | --- | --- |
| COc1ccc(/C(C)=N/Nc2nc(C)cs2)cc1 [Compound S2b, (E)-2-(2-(1-(4-Methoxyphenyl)ethylidene)hydrazineyl)-4-methylthiazole Hydrochloride] | 37.5 | 23.5 | > 100 | – | – | – | – | – | – |
| C/C(=N\Nc1nc(C)c[se]1)c1ccc(F)c(F)c1 [Se2j, (E)-2-(2-(1-(3,4-Difluorophenyl)ethylidene)hydrazineyl)-4-methyl-1,3-selenazole Hydrochloride] | 102 | – | – | 18.7 | 38.3 | – | – | – | – |
| C/C(=N\NC(N)=S)c1ccc(C(F)(F)F)cc1 [Compound S1d, (E)-2-(1-(4-(Trifluoromethyl)phenyl)ethylidene)hydrazine-1-carbothioamide] | 85.8 | 43.8 | 93.1 | – | – | – | – | – | – |
| C/C(=N\NC(N)=[Se])c1ccc(C)cc1 [Se1a, (E)-2-(1-(4-Tolyl)ethylidene)hydrazine-1-carboselenoamide] | 98.2 | 21.6 | – | – | 34.1 | – | – | – | – |
| COc1cccc(/C(C)=N/Nc2nc(C)c[se]2)c1 [Se2g, (E)-2-(2-(1-(3-Methoxyphenyl)ethylidene)hydrazineyl)-4-methyl-1,3-selenazole Hydrochloride] | 62.9 | – | – | 55.1 | > 100 | 2.67 ± 1.13 | > 10 | – | – |
| COc1ccc(/C(C)=N/NC(N)=[Se])cc1 [Se1b, (E)-2-(1-(4-Methoxyphenyl)ethylidene)hydrazine-1-carboselenoamide] | 98.9 | – | – | 30 | 40.9 | – | – | – | – |
| C/C(=N\Nc1nc(C)c[se]1)c1ccc(Br)cc1 [Se2f, (E)-2-(2-(1-(4-Bromophenyl)ethylidene)hydrazineyl)-4-methyl-1,3-selenazole Hydrochloride] | 98.6 | – | – | 18.3 | 87.7 | – | – | – | – |
| C/C(Cc1cccc(Cl)c1)=N\NC(N)=S [Compound S1m, (E)-2-(1-(3-Chlorophenyl)propan-2-ylidene)hydrazine-1-carbothioamide] | 72.3 | 69.4 | > 100 | – | – | – | – | 2.92 ± 0.16 | > 10 |
| C/C(=N\Nc1nc(C)cs1)c1ccsc1 [Compound S2l, (E)-4-Methyl-2-(2-(1-(thiophen-3-yl)ethylidene)hydrazineyl)thiazole Hydrochloride] | 31.6 | 19.5 | > 100 | – | – | – | – | – | – |
| C/C(=N\NC(N)=[Se])c1cc2ccccc2o1 [Se1p, (E)-2-(1-(Benzofuran-2-yl)ethylidene)hydrazine-1-carboselenoamide] | 102 | – | – | 28.8 | 39.4 | – | – | – | – |
| C/C(=N\NC(N)=S)c1cc2ccccc2o1 [Compound S1p, (E)-2-(1-(Benzofuran-2-yl)ethylidene)hydrazine-1-carbothioamide] | 99.3 | 49.7 | > 100 | – | – | – | – | – | – |
| C/C(=N\Nc1nc(C)cs1)c1cc2ccccc2o1 [Compound S2p, (E)-2-(2-(1-(Benzofuran-2-yl)ethylidene)hydrazineyl)-4-methylthiazole Hydrochloride] | 74.3 | 31.4 | > 100 | – | – | – | – | – | – |
| COc1cccc(/C(C)=N/N=C(/N)S)c1 [Compound S1g, (E)-2-(1-(3-Methoxyphenyl)ethylidene)hydrazine-1-carbothioamide] | 95.3 | 22.3 | > 100 | – | – | – | – | – | – |
| C/C(=N\NC(N)=S)c1csc2ccccc12 [Compound S1o, (E)-2-(1-(Benzo[b]thiophen-3-yl)ethylidene)hydrazine-1-carbothioamide] | 100 | 23.1 | > 100 | – | – | – | – | – | – |
| C/C(=N\Nc1nc(C)c[se]1)c1csc2ccccc12 [Se2o, (E)-2-(2-(1-(Benzo[b]thiophen-3-yl)ethylidene)hydrazineyl)-4-methyl-1,3-selenazole Hydrochloride] | 101 | – | – | 42.3 | > 100 | – | – | – | – |
| C/C(=N\NC(N)=S)c1ccc([N+](=O)[O-])cc1 [Compound S1c, (E)-2-(1-(4-Nitrophenyl)ethylidene)hydrazine-1-carbothioamide] | 97.6 | 20.6 | > 100 | – | – | – | – | – | – |
| COc1ccc(/C(C)=N/Nc2nc(C)cs2)c(OC)c1 [Compound S2k, (E)-2-(2-(1-(2,4-Dimethoxyphenyl)ethylidene)hydrazineyl)-4-methylthiazole Hydrochloride] | 34.2 | 46 | > 100 | – | – | – | – | – | – |
| C/C(=N\Nc1nc(C)cs1)c1ccc(C)cc1 [Compound S2a, (E)-4-Methyl-2-(2-(1-(4-tolyl)ethylidene)hydrazineyl)thiazole Hydrochloride] | 36.8 | 12.5 | > 100 | – | – | – | – | – | – |
| C/C(=N\NC(N)=[Se])c1csc2ccccc12 [Se1o, (E)-2-(1-(Benzo[b]thiophen-3-yl)ethylidene)hydrazine-1-carboselenoamide] | 93.7 | – | – | 4.32 | 31.4 | – | – | – | – |
| C/C(=N\Nc1nc(C)c[se]1)c1ccc(C(F)(F)F)cc1 [Se2d, (E)-4-Methyl-2-(2-(1-(4-(trifluoromethyl)phenyl)ethylidene)hydrazineyl)-1,3-selenazole Hydrochloride] | 95.2 | – | – | 27.9 | 96.1 | – | – | – | – |
| COc1cccc(/C(C)=N/Nc2nc(C)cs2)c1 [Compound S2g, (E)-2-(2-(1-(3-Methoxyphenyl)ethylidene)hydrazineyl)-4-methylthiazole hydrochloride] | 45.1 | 40.6 | > 100 | – | – | – | – | – | – |
| C/C(=N\Nc1nc(C)cs1)c1ccc(F)c(F)c1 [Compound S2j, (E)-2-(2-(1-(3,4-Difluorophenyl)ethylidene)hydrazineyl)-4-methylthiazole Hydrochloride] | 79.4 | 28.3 | > 100 | – | – | – | – | – | – |
